According to ChEMBL document CHEMBL5034019, “Discovery of the Next-Generation Pan-TRK Kinase Inhibitors for the Treatment of Cancer” (J Med Chem, 2021):
Calls of active or inactive are those of the source. The calls are words filed in the database; no cut-off is given here.

How the values were obtained:
KM12 = assay: Antiproliferative activity against TrK fused human KM12 cells; type: functional, cell-based
[1] = Toxicity in mouse xenografted with mouse BaF3 cells transfected with LMNA-NTRK1 assessed as unkempt appearance at 100 mg/kg, po administered once daily for 21 days and measured twice weekly; details: in vivo, 504 h
[2] = Toxicity in mouse xenografted with mouse BaF3 cells transfected with ETV6-NTRK3 assessed as weight loss at 100 mg/kg, po administered once daily for 21 days and measured twice weekly; details: in vivo, 504 h
[3] = AUC (0 to t) in Sprague-Dawley rat at 3 mg/kg measured up to 24 hrs by LC-MS/MS analysis; type: ADME, organism-based; set-up: dose 3 mg/kg, time <=24; details: in vivo
[4] = Oral bioavailability in Sprague-Dawley rat at 10 mg/kg measured up to 24 hrs by LC/MS/MS analysis; type: ADME, organism-based; details: in vivo
[5] = Cmax in Sprague-Dawley rat at 10 mg/kg, po measured up to 24 hrs by LC-MS/MS analysis; type: ADME, organism-based; set-up: route oral, dose 10 mg/kg, time <=24; details: in vivo
[6] = Toxicity in […] xenografted with mouse BaF3 cells transfected with ETV6-NTRK3 assessed as death at 100 mg/kg, po administered once daily for 21 days and measured twice weekly; type: organism-based; details: in vivo, 504 h, time 21 day
[7] = Half life in Sprague-Dawley rat at 3 mg/kg measured up to 24 hrs by LC-MS/MS analysis; type: ADME, organism-based; details: in vivo
BaF3 [8] = assay: Antitumor activity against mouse BaF3 cells transfected with LMNA-NTRK1-G595R mutant xenografted in mouse assessed as tumor growth inhibition at 100 mg/kg, po administered once daily for 21 days and measured twice weekly; details: time 21.0 day
[9] = Clearance in Sprague-Dawley rat at 3 mg/kg measured up to 24 hrs by LC/MS/MS analysis; type: ADME, organism-based; details: in vivo
[10] = Toxicity in mouse xenografted with mouse BaF3 cells transfected with ETV6-NTRK3-G623R mutant assessed as unkempt appearance at 100 mg/kg, po administered once daily for 21 days and measured twice weekly; details: in vivo, 504 h
BaF3 [11] = assay: Antitumor activity against mouse BaF3 cells transfected with LMNA-NTRK1 xenografted in mouse assessed as tumor growth inhibition at 5 to 20 mg/kg, po administered once daily for 21 days and measured twice weekly; details: dose 5-20 mg/kg, time 21.0 day
[12] = Cmax in female Sprague-Dawley rat at 10 mg/kg, po measured up to 24 hrs by LC-MS/MS analysis; type: ADME, organism-based; set-up: route oral, dose 10 mg/kg, time <=24; details: in vivo
[13] = Toxicity in […] xenografted with mouse BaF3 cells transfected with ETV6-NTRK3 assessed as weight loss at 20 mg/kg, po administered once daily for 21 days and measured twice weekly; type: organism-based; details: in vivo, 504 h, time 21 day
[14] = Toxicity in mouse xenografted with mouse BaF3 cells transfected with LMNA-NTRK1-G595R mutant assessed as weight loss at 20 mg/kg, po administered once daily for 21 days and measured twice weekly; details: in vivo, 504 h
[15] = molecular target: ALK tyrosine kinase receptor (Homo sapiens, UniProt Q9UM73)
Description: Inhibition of ALK (unknown origin) incubated for 120 mins in presence of 33P-ATP

[16] = Volume of distribution in female Sprague-Dawley rat at 2 mg/kg, iv measured up to 24 hrs by LC-MS/MS analysis; type: ADME, organism-based; details: in vivo
[17] = molecular target: Proto-oncogene tyrosine-protein kinase ROS (Homo sapiens, UniProt P08922); assay: Inhibition of recombinant human Ros1 (1883 to end residues) assessed as residual activity at 0.5 uM using KKKSPGEYVNIEFG as substrate measured after 40 mins in presence of [gamma33P]ATP by scintillation counting method relative to control
[18] = C0 in female Sprague-Dawley rat at 2 mg/kg, iv measured up to 24 hrs by LC/MS/MS analysis; type: ADME, organism-based; details: in vivo
[19] = molecular target: Receptor-interacting serine/threonine-protein kinase 1 (Homo sapiens) (UniProt Q13546); assay: Inhibition of recombinant human RIPK1 (8 to 322 residues) assessed as residual activity at 0.5 uM using myelin basic protein as substrate incubated for 40 mins in presence of [gamma33P]ATP by scintillation counting based radiometry assay relative to control
[20] = molecular target: NT-3 growth factor receptor (Homo sapiens, UniProt Q16288)
Description: Inhibition of TrKC (unknown origin) incubated for 120 mins in presence of 33P-ATP

[21] = Half life in male Sprague-Dawley rat at 2 mg/kg, iv measured up to 24 hrs by LC-MS/MS analysis; type: ADME, organism-based; details: in vivo
in vitro = details: human, Caco-2
Description: Efflux ratio of apparent permeability from basolateral to apical over apical to basolateral side in human Caco2 cells incubated for 2 hrs by LC-MS/MS analysis

[22] = AUC (0 to t) in female Sprague-Dawley rat at 2 mg/kg, iv measured up to 24 hrs by LC-MS/MS analysis; type: ADME, organism-based; set-up: route intravenous, dose 2 mg/kg, time <=24; details: in vivo
[23] = system: Epidermal growth factor receptor (Homo sapiens), P00533 [L858R]; assay: Inhibition of recombinant human EGFR L858R mutant (696 to end residues) assessed as residual activity at 0.5 uM using poly(Glu, Tyr) 4:1 as substrate at 40 mins in presence of [gamma-33ATP] by scintillation counting based radiometry assay relative to control
[24] = molecular target: Serine/threonine-protein kinase B-raf (Homo sapiens) (UniProt P15056); assay: Inhibition of recombinant […] human B-Raf (416 to end residues) assessed as residual activity at 0.5 uM using myelin basic protein substrate incubated for 40 mins in presence of [gamma-33ATP] by scintillation counting based radiometry assay relative to control
[25] = Volume of distribution in male Sprague-Dawley rat at 2 mg/kg, iv measured up to 24 hrs by LC-MS/MS analysis; type: ADME, organism-based; details: in vivo
[26] = Toxicity in […] xenografted with mouse BaF3 cells transfected with LMNA-NTRK1 assessed as weight loss at 20 mg/kg, po administered once daily for 21 days and measured twice weekly; type: organism-based; details: in vivo, 504 h, time 21 day
[27] = Oral bioavailability in female Sprague-Dawley rat at 10 mg/kg measured up to 24 hrs by LC/MS/MS analysis; type: ADME, organism-based; details: in vivo
[28] = molecular target: High affinity nerve growth factor receptor (Homo sapiens, UniProt P04629, G595R)
BaF3 [29] = assay: Antitumor activity against mouse BaF3 cells transfected with ETV6-NTRK3 xenografted in mouse assessed as tumor growth inhibition at 5 to 20 mg/kg, po administered once daily for 21 days and measured twice weekly; details: dose 5-20 mg/kg, time 21.0 day
[30] = Cmax in male Sprague-Dawley rat at 10 mg/kg, po measured up to 24 hrs by LC-MS/MS analysis; type: ADME, organism-based; set-up: route oral, dose 10 mg/kg, time <=24; details: in vivo
[31] = molecular target: Tyrosine-protein kinase JAK1 (Homo sapiens) (UniProt P23458); assay: Inhibition of human JAK1 (866 to end residues) assessed as residual activity at 0.5 uM using GEEPLYWSFPAKKK as substrate after 40 mins by [gamma-33ATP] radiometric assay relative to control

Chain of NT-3 growth factor receptor (Q16288 whole entry): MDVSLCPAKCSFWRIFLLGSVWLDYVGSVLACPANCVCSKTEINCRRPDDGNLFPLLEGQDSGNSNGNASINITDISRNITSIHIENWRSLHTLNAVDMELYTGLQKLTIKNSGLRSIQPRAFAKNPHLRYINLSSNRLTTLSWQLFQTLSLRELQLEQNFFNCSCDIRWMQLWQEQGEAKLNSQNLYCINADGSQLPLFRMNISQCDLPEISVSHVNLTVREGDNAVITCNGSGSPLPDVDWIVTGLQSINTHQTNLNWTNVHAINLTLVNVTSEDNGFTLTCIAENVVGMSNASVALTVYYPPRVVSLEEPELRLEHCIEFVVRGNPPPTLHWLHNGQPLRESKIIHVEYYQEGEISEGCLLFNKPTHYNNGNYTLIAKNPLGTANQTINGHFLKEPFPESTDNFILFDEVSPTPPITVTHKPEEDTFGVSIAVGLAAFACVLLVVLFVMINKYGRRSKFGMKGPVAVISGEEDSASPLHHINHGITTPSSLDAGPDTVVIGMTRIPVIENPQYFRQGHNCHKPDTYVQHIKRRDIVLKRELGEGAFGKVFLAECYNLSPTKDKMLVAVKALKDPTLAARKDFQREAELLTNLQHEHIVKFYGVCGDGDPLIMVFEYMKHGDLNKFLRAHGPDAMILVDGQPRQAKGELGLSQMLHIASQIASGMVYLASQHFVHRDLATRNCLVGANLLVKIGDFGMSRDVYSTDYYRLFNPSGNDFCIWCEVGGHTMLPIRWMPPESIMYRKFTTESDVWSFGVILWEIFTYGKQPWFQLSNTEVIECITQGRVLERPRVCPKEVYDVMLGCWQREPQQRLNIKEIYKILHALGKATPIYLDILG
Chain of High affinity nerve growth factor receptor (P04629 33-796 G595R limits assumed): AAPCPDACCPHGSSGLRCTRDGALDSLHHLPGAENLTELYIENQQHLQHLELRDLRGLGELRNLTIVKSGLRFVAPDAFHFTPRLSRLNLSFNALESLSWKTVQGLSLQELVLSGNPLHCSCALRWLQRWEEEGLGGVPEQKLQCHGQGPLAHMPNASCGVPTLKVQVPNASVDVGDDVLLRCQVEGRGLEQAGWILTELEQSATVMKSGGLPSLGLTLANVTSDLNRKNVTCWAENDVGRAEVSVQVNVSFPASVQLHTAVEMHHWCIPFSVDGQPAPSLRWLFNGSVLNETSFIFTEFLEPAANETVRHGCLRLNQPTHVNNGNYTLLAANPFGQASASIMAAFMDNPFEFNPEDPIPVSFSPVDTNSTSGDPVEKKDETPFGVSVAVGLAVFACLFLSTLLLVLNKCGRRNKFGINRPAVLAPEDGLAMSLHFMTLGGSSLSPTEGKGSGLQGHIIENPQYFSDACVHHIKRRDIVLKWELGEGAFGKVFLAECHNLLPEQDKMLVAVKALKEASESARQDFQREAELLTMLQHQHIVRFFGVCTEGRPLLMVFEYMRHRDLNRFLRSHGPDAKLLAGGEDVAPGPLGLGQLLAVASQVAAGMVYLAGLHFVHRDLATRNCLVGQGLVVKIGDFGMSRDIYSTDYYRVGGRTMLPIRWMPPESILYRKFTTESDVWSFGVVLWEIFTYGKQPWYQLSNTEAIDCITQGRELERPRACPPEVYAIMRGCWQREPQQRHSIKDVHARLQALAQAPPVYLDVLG
Chain of Proto-oncogene tyrosine-protein kinase ROS (P08922 whole entry): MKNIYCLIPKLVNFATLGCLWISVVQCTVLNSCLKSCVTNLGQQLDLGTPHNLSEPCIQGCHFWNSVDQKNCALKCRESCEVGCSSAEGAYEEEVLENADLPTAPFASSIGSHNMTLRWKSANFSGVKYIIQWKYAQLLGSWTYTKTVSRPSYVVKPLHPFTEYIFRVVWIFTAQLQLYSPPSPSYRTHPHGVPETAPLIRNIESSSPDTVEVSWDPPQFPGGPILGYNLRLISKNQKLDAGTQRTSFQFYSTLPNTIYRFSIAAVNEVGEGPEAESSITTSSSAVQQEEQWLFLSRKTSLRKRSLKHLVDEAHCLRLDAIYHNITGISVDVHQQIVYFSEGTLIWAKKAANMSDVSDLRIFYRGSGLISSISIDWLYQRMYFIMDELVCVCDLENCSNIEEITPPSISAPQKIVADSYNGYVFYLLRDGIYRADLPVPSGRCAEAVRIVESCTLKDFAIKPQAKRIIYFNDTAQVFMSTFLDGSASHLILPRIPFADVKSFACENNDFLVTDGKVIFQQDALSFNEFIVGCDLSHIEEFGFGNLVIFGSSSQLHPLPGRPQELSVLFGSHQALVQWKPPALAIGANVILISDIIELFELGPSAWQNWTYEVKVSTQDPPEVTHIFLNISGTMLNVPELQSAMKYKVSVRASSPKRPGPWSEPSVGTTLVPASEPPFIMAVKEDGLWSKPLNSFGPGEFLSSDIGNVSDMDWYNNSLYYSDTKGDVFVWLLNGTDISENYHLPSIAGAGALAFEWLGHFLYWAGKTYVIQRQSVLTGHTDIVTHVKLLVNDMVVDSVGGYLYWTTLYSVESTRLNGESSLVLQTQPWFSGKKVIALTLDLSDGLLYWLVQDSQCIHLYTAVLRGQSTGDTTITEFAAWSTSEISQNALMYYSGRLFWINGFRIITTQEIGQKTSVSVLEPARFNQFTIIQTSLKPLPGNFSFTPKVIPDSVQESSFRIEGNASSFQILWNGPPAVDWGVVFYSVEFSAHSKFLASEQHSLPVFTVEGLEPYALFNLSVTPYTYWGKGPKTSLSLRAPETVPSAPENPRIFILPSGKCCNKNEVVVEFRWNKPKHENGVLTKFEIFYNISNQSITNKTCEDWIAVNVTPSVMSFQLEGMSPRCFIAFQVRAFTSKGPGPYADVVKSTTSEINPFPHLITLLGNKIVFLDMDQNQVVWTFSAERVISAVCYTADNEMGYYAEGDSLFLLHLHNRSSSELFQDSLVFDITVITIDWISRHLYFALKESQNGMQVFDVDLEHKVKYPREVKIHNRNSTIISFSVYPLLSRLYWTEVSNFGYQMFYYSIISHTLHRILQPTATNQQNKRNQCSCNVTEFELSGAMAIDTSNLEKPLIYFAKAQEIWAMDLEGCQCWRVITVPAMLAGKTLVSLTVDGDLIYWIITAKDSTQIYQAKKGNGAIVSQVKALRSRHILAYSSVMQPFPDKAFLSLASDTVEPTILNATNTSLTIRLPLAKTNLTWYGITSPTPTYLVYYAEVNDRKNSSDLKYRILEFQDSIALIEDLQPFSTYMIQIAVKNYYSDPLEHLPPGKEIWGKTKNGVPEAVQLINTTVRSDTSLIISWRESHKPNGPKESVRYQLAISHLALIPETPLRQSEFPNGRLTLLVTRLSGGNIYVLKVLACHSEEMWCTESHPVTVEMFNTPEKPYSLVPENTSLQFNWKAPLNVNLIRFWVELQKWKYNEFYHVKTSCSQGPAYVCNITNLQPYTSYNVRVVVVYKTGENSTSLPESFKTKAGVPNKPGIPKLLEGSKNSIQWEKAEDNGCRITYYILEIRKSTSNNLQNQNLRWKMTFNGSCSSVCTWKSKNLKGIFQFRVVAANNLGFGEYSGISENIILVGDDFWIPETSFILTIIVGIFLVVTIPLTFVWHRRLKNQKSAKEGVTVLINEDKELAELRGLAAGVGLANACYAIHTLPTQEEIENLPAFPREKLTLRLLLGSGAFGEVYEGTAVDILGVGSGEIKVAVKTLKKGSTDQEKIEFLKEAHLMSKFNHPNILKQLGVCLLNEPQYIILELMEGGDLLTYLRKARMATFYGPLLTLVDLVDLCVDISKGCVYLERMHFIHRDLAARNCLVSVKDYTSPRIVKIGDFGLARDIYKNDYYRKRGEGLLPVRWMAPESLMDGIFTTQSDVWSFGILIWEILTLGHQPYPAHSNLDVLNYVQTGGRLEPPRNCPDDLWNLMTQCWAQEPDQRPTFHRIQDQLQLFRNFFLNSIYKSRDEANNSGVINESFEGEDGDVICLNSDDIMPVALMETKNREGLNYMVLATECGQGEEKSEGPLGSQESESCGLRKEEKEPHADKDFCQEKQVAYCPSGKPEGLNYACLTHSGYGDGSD
Chain of Receptor-interacting serine/threonine-protein kinase 1 (Homo sapiens) (Q13546 whole entry, the tested form may be a part): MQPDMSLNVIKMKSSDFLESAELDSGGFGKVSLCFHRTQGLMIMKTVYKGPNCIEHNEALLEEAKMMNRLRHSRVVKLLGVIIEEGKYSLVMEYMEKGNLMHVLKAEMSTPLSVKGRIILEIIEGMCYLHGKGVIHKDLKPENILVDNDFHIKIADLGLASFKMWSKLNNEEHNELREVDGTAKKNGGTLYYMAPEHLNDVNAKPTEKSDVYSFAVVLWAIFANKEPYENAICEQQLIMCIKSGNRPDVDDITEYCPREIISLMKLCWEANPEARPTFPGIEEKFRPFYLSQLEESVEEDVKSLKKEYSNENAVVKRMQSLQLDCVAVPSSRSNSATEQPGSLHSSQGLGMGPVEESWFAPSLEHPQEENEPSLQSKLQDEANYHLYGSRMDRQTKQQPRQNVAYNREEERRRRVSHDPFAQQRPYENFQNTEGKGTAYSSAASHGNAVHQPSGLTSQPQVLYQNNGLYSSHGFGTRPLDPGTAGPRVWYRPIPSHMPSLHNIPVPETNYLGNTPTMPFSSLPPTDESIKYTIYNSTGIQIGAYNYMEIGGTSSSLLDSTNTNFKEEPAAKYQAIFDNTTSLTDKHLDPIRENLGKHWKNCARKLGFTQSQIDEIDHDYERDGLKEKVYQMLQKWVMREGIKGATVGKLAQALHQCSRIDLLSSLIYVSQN

For `C[C@@H]1CCc2ncc(F)cc2[C@H]2CCCN2c2ccn3ncc(c3n2)C(=O)N1` [SELITRECTINIB], the IC50 (KM12) was no more than 5 nM, the Activity [1] was “Toxic” and the Activity [2] was “Toxic”. The AUC(0-t) at 24 h [3] was 11.1 µM·h, the bioavailability [4] was 74% and the Cmax [5] was 12.7 µM. The Activity [6] was “Toxic”, the half-life [7] was 1.2 h and the Activity (BaF3 [8]) was “Active”. For the same molecule, the clearance [9] was 11.8 mL/min/kg and the Activity [10] was “Toxic”.
With `O=C1NC2(CC2)COc2ncc(F)cc2[C@H]2COCCN2c2ccn3ncc1c3n2` the Activity (BaF3 [11]) was “Active”, the Cmax [12] was 6.63 µM and the Activity [13] was “Toxic”. The Activity [14] was “Toxic”, the IC50 [15] was 182 nM and the Vd [16] was 1.46 L/kg. The Activity [17] was 16%, the C0 at 24 h [18] was 3.51 µM and the Activity [19] was 102%. It also gave an IC50 [20] of 0.2 nM, a half-life [21] of 0.872 h and an efflux ratio at 2 h (in vitro) of 2.8. It also gave an AUC(0-t) at 24 h [22] of 10.3 µM·h, an Activity [23] of 91% and an Activity [24] of 111%. For the same molecule, the Vd [25] was 1.39 L/kg, the Activity [26] was “Toxic” and the bioavailability [27] was 61.9%. The IC50 [28] was 3.5 nM, the Activity (BaF3 [29]) was “Active” and the Cmax [30] was 6.38 µM. The Activity [31] was 91%.
